How the values were obtained:
SOX18[109] HMG fragment = SOX18[109] HMG fragment (Mus musculus (Mouse), UniProt P43680); assay: FP DNA-binding competition assay, SOX18[109] HMG fragment; conditions: for remaining activity at 50 µM: read-out: FP bound fraction (%) 50 μM; for remaining activity at 200 µM: read-out: FP bound fraction (%) 200 μM
Procedure, shortened: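 Fluorescence polarization competition using mouse SOX18[109] fragment (residues 69-177, HMG box plus flanks) at 60 nM with 5 nM 5′-FAM 40 bp Prox1 DNA in 10 mM Tris pH 8.0, 100 mM NaCl, 2-3.33% DMSO. Agitated 5 min RT, 10 min 37° C, 30 min RT, then read (ex 485/em 525 nm), triplicates.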

SOX18-SOX18 homodimer = SOX18-SOX18 homodimer (Homo sapiens (Human), UniProt P35713); assay: ALPHAScreen SOX18-SOX18 homodimerization; assay type: binding; conditions: 5 uM
Sequence of SOX18-SOX18 homodimer (P35713 whole entry): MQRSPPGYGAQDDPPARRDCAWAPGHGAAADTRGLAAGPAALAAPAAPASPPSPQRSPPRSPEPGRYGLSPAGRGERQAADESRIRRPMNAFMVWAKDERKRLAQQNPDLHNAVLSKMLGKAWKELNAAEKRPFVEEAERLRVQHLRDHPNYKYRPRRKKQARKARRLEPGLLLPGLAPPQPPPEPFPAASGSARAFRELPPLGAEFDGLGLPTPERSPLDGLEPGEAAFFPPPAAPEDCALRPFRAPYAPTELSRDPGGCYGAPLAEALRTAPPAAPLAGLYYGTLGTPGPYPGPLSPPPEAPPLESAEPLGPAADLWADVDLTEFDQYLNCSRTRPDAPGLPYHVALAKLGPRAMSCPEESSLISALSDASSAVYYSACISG
Protocol: ALPHAScreen was performed as previously described (Sierecki et al., 2014, Sierecki et al., 2013), using the cMyc detection kit and Proxiplate-384 Plus plates (PerkinElmer). The LTE lysate co-expressing the proteins of interest was diluted in buffer A (25 mM HEPES, 50 mM NaCl). For the assay, 12.5 μL (0.4 μg) of Anti-cMyc coated Acceptor Beads in buffer B (25 mM HEPES, 50 mM NaCl, 0.001% NP40, 0.001% casein) were aliquoted into each well. This was followed by the addition of 2 μL of diluted sample, at different concentration, and 2 μL of biotin labeled GFP-Nanotrap in buffer A. The plates were incubated for 45 min at room temperature, then adding 2 μL (0.4 μg) of streptavidin-coated Donor Beads diluted in buffer A, and incubation in the dark for 45 min at room temperature. The ALPHAScreen signal was measured on an Envision Plate Reader (PerkinElmer), using manufacturer's recommended settings (λexc=680/30 nm for 0.18 s, λem=570/100 nm after 37 ms). The resulting bell-shaped curve is an indication of a positive interaction, while a flat line reflects a lack of interaction between the proteins. The measurement of each protein pair was repeated in triplicate.
I is the highest signal level (top of the hook effect curve) and Ineg is the lowest (background) signal level. The signals were normalized to the Iref signal obtained for the strongest interaction. […] Percentage of interaction was calculated as: […]
The ALPHA-Screen Assay was performed as previously described (Sierecki et al. 2014), using the cMyc detection kit and Proxiplate-384 Plus plates (PerkinElmer). A serial dilution of each sample was measured. The LTE lysate co-expressing the proteins of interest was diluted in buffer A (25 mM HEPES, 50 mM NaCl). For the assay, 12.5 μL (0.4 μg) of Anti-cMyc coated Acceptor Beads in buffer B (25 mM HEPES, 50 mM NaCl, 0.001% NP40, casein) were aliquoted into each well. This was followed by the addition of 2 μL of diluted sample and 2 μL of biotin labeled GFP-Nanotrap in buffer A. The plate was incubated for 45 min at RT. Afterward, 2 μL (0.4 μg) of Streptavidin coated Donor Beads diluted in buffer A, were added, followed by incubation in the dark for 45 min at RT. The ALPHA-Screen signal was obtained on an Envision Multilabel Plate Reader (PerkinElmer), using the manufacturer's recommended settings (excitation: 680/30 nm for 0.18 s, emission: 570/100 nm after 37 ms). The resulting bell-shaped curve is an indication of a positive interaction, while a flat line reflects a lack of interaction between the proteins. The measurement of each protein pair was repeated a minimum of three times using separate plates. The Binding Index was calculated as: BI=[(I−I_neg)/(I_ref−I_neg)]×100
For PPI disruption assay, protein pairs expressed in LTE were incubated for 1 h with 100 μM Sm4 or DMSO alone (0.7% DMSO final). 100 μM Sm4 or DMSO was also added to buffer B. PPI disruption was calculated as: (1−I_Sm4/I_DMSO)×100.
For IC50 determination, the assay was identical but a dilution range of Sm4 was used (0.3 to 300 μM). Percentage of interaction was calculated as: I_Sm4/1 DMSO×100. Data from at least 3 independent experiments were fitted in GraphPad Prism (RRID: SCR_007370) version 6.0 using 3-parameter non-linear regression.

Sequence of SOX18[109] HMG fragment (P43680 69-177): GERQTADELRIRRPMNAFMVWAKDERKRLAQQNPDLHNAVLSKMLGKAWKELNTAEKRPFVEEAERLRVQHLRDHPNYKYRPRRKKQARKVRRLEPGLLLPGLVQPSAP

remaining activity at 50 µM (SOX18[109] HMG fragment; 50 μM, SOX18/DNA binding) | remaining activity at 200 µM (SOX18[109] HMG fragment; 200 μM, SOX18/DNA binding) | inhibitory activity in respect of SOX18-SOX18 homodimerization (SOX18-SOX18 homodimer) | SOX18-DNA binding inhibition (FP, words) (SOX18[109] HMG fragment; SAR library, SOX18[109]) | FP bound fraction (%) 50 μM (SOX18[109] HMG fragment; 50 μM, SOX18/DNA binding) | FP bound fraction (%) 200 μM (SOX18[109] HMG fragment; 200 μM, SOX18/DNA binding) | Compound
94.2 ± 1.9% | 101 ± 1.5% | some inhibitory activity |  |  |  | COc1cc(C)cc(/C=C/c2ccc3ccccc3c2)c1C(=O)O [Sm34, (E)-2-methoxy-4-methyl-6-(2-(naphthalen-2-yl)vinyl)benzoic acid]
101 ± 12.1% | 92.7 ± 14.7% | some inhibitory activity | not active |  |  | Oc1cc(CCc2ccccc2)cc(O)c1O [Sm40, 5-phenethylbenzene-1,2,3-triol]
 |  | some inhibitory activity |  | 98.5 ± 5.9% | 128.3 ± 17.2% | CCN(CC)C(=O)c1c(O)cc(O)cc1CCc1ccc2ccccc2c1 [Sm26, N,N,diethyl-2,4-hydroxy-6-(2-(naphthalen-2-yl)ethyl)benzamide]

From patent publication US20240002326A1, “COMPOUNDS AND USE THEREOF IN METHODS OF TREATMENT” (The University of Queensland, priority 2016, published 2024)
